Data published in PMC5927802, “Pharmacokinetics, safety, and tolerability of the 2‐ and 3‐direct‐acting antiviral combination of AL‐335, odalasvir, and simeprevir in healthy subjects” (Pharmacology Research & Perspectives, 2018).
“Also recorded” adds a separate entry of the source. Where two headings read alike, the source gives them in different places.

Tests used:
[1] = test system: breast cancer resistance protein (BCRP); settings: not told; cited from earlier work
CYP1A2 = test system: CYP1A2; parameters: method as in PMID 26353895; settings: cited from earlier work
CYP3A = test system: CYP3A; parameters: method as in PMID 26353895; settings: cited from earlier work
[2] = Plasma pharmacokinetics, Phase I open‐label two‐group fixed‐sequence drug‐drug interaction study; settings: for C min / concentration at 23.9 h / concentration at 24 h / Cmax: mean (SD); for T last / Tmax: median (range); for AUC0‐24 h LSM ratio / C min LSM ratio / Cmax LSM ratio: point estimate (90% CI); for concentration at 23.9 h / concentration at 24 h / Cmax / Tmax: human, plasma, oral; for concentration at 23.9 h / concentration at 24 h: C last; for Tmax: T max
Description: This was an open‐label, two‐group, fixed‐sequence study conducted at a single study center in Rennes, France (Biotrial). A two‐group, fixed‐sequence study design was chosen as this was deemed to be the most efficient way to evaluate the effect of simeprevir with/without odalasvir on AL‐335; and vice versa (Group 1) and the effect of odalasvir with/without simeprevir on AL‐335; and vice versa (Group 2). Thus, this study design had the potential to gather both 2‐way and 3‐way DDIs. For both groups, the study consisted of a screening period, a study period, and two follow‐up visits. The study was authorized by the French National Agency for the Safety of Medicine and Health Products (ANSM) and was approved by an Independent Ethics Committee (Comité de Protection des Personnes [CPP] Ouest VI, Brest, France; Reference CPP Ouest 6–CPP 888/MS1), and was conducted in accordance with the principles of the Declaration of Helsinki and International Conference on Harmonization. All subjects provided written informed consent to participate. Drug and molecular target nomenclature in this manuscript conforms to the British Journal of Pharmacology's Concise Guide to Pharmacology 2017/18.19
Subjects in Group 1 received simeprevir 150 mg QD on days 4‐23, odalasvir 150 mg (loading dose) on day 14, odalasvir 50 mg QD on days 15‐23, and AL‐335 800 mg QD on days 1‐3, 11‐13, and 21‐23. Subjects in Group 2 received odalasvir 150 mg (loading dose) on day 4, odalasvir 50 mg QD on days 5‐23, simeprevir 150 mg QD on days 14‐23, and AL‐335 800 mg QD on days 1‐3, 11‐13, and 21‐23. […] A minimum of 10 days was considered sufficient for both odalasvir and simeprevir to reach steady‐state.
Subjects were assigned sequentially to Group 1 then to Group 2 after confirming eligibility.
As this was an […] pharmacokinetic study, blood samples for pharmacokinetic analysis were collected predose and at 0.25, 0.5, 1, 2, 3, 4, 6, 8, 10, 12, and 24 hours postdose on days 3, 13, and 23 for determination of AL‐335, ALS‐022399, and ALS‐022227 plasma concentrations (Groups 1 and 2). For simeprevir, blood samples for determination of simeprevir plasma concentrations were taken at the same time points but on days 10, 13, 20, and 23 (Group 1) or days 20 and 23 (Group 2). Blood samples for the determination of odalasvir plasma concentrations were collected predose and at 1, 3, 4, 5, 6, 7, 8, 9, 10, 12, 16, and 24 hours postdose on days 20 and 23 (Group 1) or days 10, 13, 20, and 23 (Group 2), with two further samples also collected on the day 7 and day 28 follow‐up assessments (both groups).
Plasma concentrations of AL‐335, ALS‐022399, ALS‐022227, odalasvir, and simeprevir were determined using validated liquid chromatography‐tandem mass spectrometry methods. Dichlorvos solution was added to blood samples from AL‐335‐treated subjects to stabilize AL‐335 and its metabolites (25 μL of 5 mmol/L dichlorvos into 1 mL blood). The lower limit of quantification was 1 ng/mL, 2 ng/mL, and 5 ng/mL for AL‐335, ALS‐022399, and ALS‐022227, respectively, 1 ng/mL for odalasvir, and 2 ng/mL for simeprevir.
Pharmacokinetic analyses were performed on all subjects with available profiles who received at least one dose of study drug without any protocol deviation affecting pharmacokinetic evaluation. […] Secondary parameters were last observed plasma concentration, apparent elimination half‐life, time of the maximum observed plasma concentration (T max), and time to last measurable plasma concentration (T last).

OATP1B1/1B3 = settings: cited from earlier work
[3] = Group 1 Day 13, SMV + AL‐335 versus SMV alone
[4] = Group 1 Day 20, SMV + ODV versus SMV alone
[5] = Group 1 Day 23, SMV + AL‐335 + ODV versus SMV alone
[6] = Group 1 Day 23, SMV + AL‐335 + ODV
[7] = Group 2 Day 23, SMV + AL‐335 + ODV

C min ([2]; Group 1 Day 10, SMV alone): 833 (856) ng/mL
T last ([2]; Group 1 Day 10, SMV alone): 23.9 (23.9‐24.0) h
C min ([2]; Group 1 Day 13, SMV + AL‐335): 857 (1129) ng/mL
T last ([2]; Group 1 Day 13, SMV + AL‐335): 23.9 (23.9‐24.0) h
AUC0‐24 h LSM ratio [2, 3]: 0.93 (0.83‐1.05)
C min LSM ratio [2, 3]: 0.88 (0.76‐1.02)
Cmax LSM ratio [2, 3]: 0.89 (0.79‐1.00)
AUC0‐24 h LSM ratio [2, 4]: 1.76 (1.53‐2.01)
C min LSM ratio [2, 4]: 1.41 (1.01‐1.99)
Cmax LSM ratio [2, 4]: 1.66 (1.36‐2.01)
C min ([2]; Group 1 Day 20, SMV + ODV): 1446 (2064) ng/mL
T last ([2]; Group 1 Day 20, SMV + ODV): 23.9 (23.9‐24.0) h
AUC0‐24 h LSM ratio [2, 5]: 1.60 (1.38‐1.85)
C min LSM ratio [2, 5]: 1.82 (1.52‐2.19)
Cmax LSM ratio [2, 5]: 1.43 (1.23‐1.66)
C min [2, 6]: 1910 (2441) ng/mL
T last [2, 6]: 24.0 (24.0‐24.0) h
C min ([2]; Group 2 Day 20, SMV + ODV): 1274 (1035) ng/mL
T last ([2]; Group 2 Day 20, SMV + ODV): 23.9 (23.8‐24.1) h
C min [2, 7]: 1847 (2313) ng/mL
T last [2, 7]: 24.0 (24.0‐24.1) h
concentration at 23.9 h ([2]; 150 mg, Group 1 Day 10, SMV alone): 981 ng/mL
concentration at 23.9 h ([2]; Group 1 Day 13, SMV + AL‐335): 1020 ng/mL
concentration at 23.9 h ([2]; Group 1 Day 20, SMV + ODV): 2340 ng/mL
concentration at 24 h [2, 6]: 2390 ng/mL
concentration at 23.9 h ([2]; Group 2 Day 20, SMV + ODV): 2140 ng/mL
concentration at 24 h [2, 7]: 2590 ng/mL
Cmax ([2]; Group 1 Day 10, SMV alone): 2960 ng/mL
Cmax ([2]; Group 1 Day 13, SMV + AL‐335): 2760 ng/mL
Cmax ([2]; Group 1 Day 20, SMV + ODV): 5220 ng/mL
Cmax [2, 6]: 4740 ng/mL
Cmax ([2]; Group 2 Day 20, SMV + ODV): 4530 ng/mL
Cmax [2, 7]: 4950 ng/mL
Tmax ([2]; Group 1 Day 10, SMV alone): 6 h
Tmax ([2]; Group 1 Day 13, SMV + AL‐335): 6 h
Tmax ([2]; Group 1 Day 20, SMV + ODV): 6 h
Tmax [2, 6]: 6 h
Tmax ([2]; Group 2 Day 20, SMV + ODV): 6 h
Tmax [2, 7]: 8 h
difference in T max ([2]; simeprevir coadministered with odalasvir): No clinically relevant difference
SMILES: COc1ccc2c(O[C@@H]3C[C@H]4C(=O)N[C@]5(C(=O)NS(=O)(=O)C6CC6)C[C@H]5/C=C\CCCCN(C)C(=O)[C@@H]4C3)cc(-c3nc(C(C)C)cs3)nc2c1C [simeprevir]
BCRP substrate / inhibitor status [1]: substrate and inhibitor
CYP1A2 inhibition (CYP1A2): mild but not clinically relevant inhibitor
CYP3A inhibition (CYP3A): mild inhibitor of intestinal (not hepatic) CYP3A
effect of AL‐335 on pharmacokinetics ([2]; AL‐335 800 mg QD coadministered): no effect; also recorded: did not alter; also recorded: no impact
OATP1B1/3 substrate / inhibitor status (OATP1B1/1B3): clinically confirmed OATP1B1 inhibitor
OATP1B1/3 substrate / inhibitor status (OATP1B1/1B3; listed as Simeprevir): substrate and inhibitor
